Results on eight compounds are retold here after patent publication US20150246067A1, “ANTIVIRAL TREATMENT OF LYMPHOMA AND CANCER” (THE REGENTS OF THE UNIVERSITY OF MICHIGAN, priority 2009, published 2015).

Structures are written as SMILES.

This experiment deals with HERV K (HML2). The experiment can be described thus: Reverse transcriptase activity in supernatants of drug-treated NCCIT cells (Reverse Transcription Assay Kit). The conditions noted are these: 7 days, increasing doses of drug, supernatant, FIGS. 4A-I. In kind it is cell-based, human. As to the method: HIV antivirals were assayed to determine which antiviral agents have an antiviral effect against HERV K (HML2). The NCCIT cell line derived from a teratocarcinoma produces many HERV K (HML2) viral particles. NCCIT cells were maintained at 40% confluence in 6-well plates in RPMI medium and incubated for 7 days in the presence of increasing doses of nucleoside or non-nucleoside reverse transcriptase inhibitors or HIV protease inhibitors. Drugs, provided as lyophilized powders by the AIDS Research and Reference Reagent Program, were resuspended to a final concentration of 10 mg/mL (except for PFA: 60 mg/mL) in different solvents as recommended (SEE table 1). Cells were incubated for 7 days at increasing doses of drugs or the vehicle of solution as controls. Supernatants were collected and cell debris was removed by centrifugation at 2300 rpm for 20 min. Supernatant was assessed for Reverse Transcriptase Activity using the Reverse Transcription Assay Kit (Invitrogen) as described by the manufacturer. In addition, supernatants were treated with 20 units of DNAse (Roche) for 1 hour at 37° C. and viral RNA was extracted using the Viral RNA mini kit (Qiagen) as described by the manufacturer. The HERV-K type 2 viral load was measured by quantitative Real Time RT-PCR using primers that expand the type-2 env gene region, which is absent in type-1 viruses, Kenv type2F: 5′-[…]-3′ (SEQ ID NO. 1), and Kenv type2R: 5′-[…]-3′ (SEQ ID NO. 2). Standard curves were generated using serial dilutions of in vitro RNA transcripts as external calibrators. In a similar way, quantities of HERV—K type 2 proviruses were measured by Real Time PCR using 500 ng of isolated DNA.
In the case of `Nc1nc(=O)n([C@@H]2CS[C@H](CO)O2)cc1F` [FTC, Emtricitabine], the “HERV K (HML2) RT activity” value is reported as “reduction”. Next, `Cc1cn([C@H]2C[C@H](N=[N+]=[N-])[C@@H](CO)O2)c(=O)[nH]c1=O` [AZT, Zidovudine]: “reduction”; `O=c1nc(NO)ccn1[C@@H]1O[C@H](CO)[C@@H](O)[C@H]1O` [β-D hydroxycytidine, β-d hydroxy cytidine]: “reduction”; `O=c1[nH]cnc2c1ncn2[C@H]1CC[C@@H](CO)O1` [ddI, Dideoxyinosine]: “reduction”. Regarding `Nc1nc(NC2CC2)c2ncn([C@H]3C=C[C@@H](CO)C3)c2n1` [Abacavir], the “HERV K (HML2) RT activity” value is reported as “reduction”.

With `Cc1cn([C@H]2C=C[C@@H](CO)O2)c(=O)[nH]c1=O` [d4T, Stavudine], the “HERV K (HML2) RT activity” value is recorded as “reduction”.

Turning to `Nc1ccn([C@H]2CC[C@@H](CO)O2)c(=O)n1` [ddC, zalcitabine], the “HERV K (HML2) RT activity” value is “reduction”. The result for `CC(C)OC(=O)OCOP(=O)(CO[C@H](C)Cn1cnc2c(N)ncnc21)OCOC(=O)OC(C)C` [tenofovir disoproxil, Tenofovir disoproxyl fumarato] reads “reduction”.
